Data: patent US11679126B2, “Methods to enhance microvascular engraftment of bioengineered and primary tissues” (Children's Medical Center Corporation, priority 2016, dated 2023)

Columns and labels:
[1] = tested on: U-Grafts (human ECFCs + MSCs); experiment: U-Graft vascularization after subcutaneous implantation into treated nude mice; type: in vivo; design: number of perfused vessels at day 7 in U-grafts: dose or concentration left out as unconfirmed; details: for U-Graft vascularization / microvessel density compared with control: U-Grafts in treated mice, day 7
Protocol: (§1) Photopolymerizable methacrylated gelatin (GelMA) hydrogel was synthesized as previously described (Chen, et al. Adv. Funct. Mater. 22: 2027-2039 (2012)). GelMA prepolymer solution was prepared in PBS at 80° C. (5 w/v % final) with photoinitiator Irgacure 2959 (0.5 w/v %; CIBA Chemicals), and then allowed to cool down to 37° C. in a water bath. ECFCs and MSCs (4×10^5 total; 1:1 ratio) were suspended in 200 μL of GelMA solution and the mixture was polymerized by exposure to 7.5 mW/cm^2 UV light for 15 s at 37° C. Polymerized cell-laden constructs were referred to as unassembled grafts or U-Grafts. Alternatively, on indicated experiments, U-Grafts were constructed with ice-cold Phenol Red-free Matrigel (BD Bioscience). Assembled grafts or A-Grafts were constructed by culturing U-Grafts in vitro for 7 days using EGM2 with […]. A-Grafts contained easily observable, fully-assembled vascular networks. Both, U-Grafts and A-Grafts were subcutaneously implanted into back of 6-week-old male athymic nu/nu mice for engraftment studies. On specified experiments, DsRed-labeled ECFCs were used to visualize the formation of assembled vascular networks in A-Grafts. […]
(§2) Microvessel density was reported as the average number of erythrocyte-filled vessels (vessels/mm^2) in H&E-stained sections from the middle of the implants as previously described (Melero-Martin, et al. Circ. Res. 103:194-202 (2008)). The entire area of each section was analyzed. On specified experiments, human-specific microvessel density was quantified by evaluation of slides immunostained for human-specific CD31 (h-CD31). Perfused microvessel density was measured by injection of FITC-labeled lectins (UEA-1 or Iso-B4) before euthanizing graft-bearing mice, followed by staining of lectin-labeled vessels with anti-UEA-1 or anti-FITC antibodies. […]
[…] Neutrophil recruitment at day 2 and graft vascularization at day 7 were measured as described before. […]

[2] = tested on: A-Grafts (assembled human vascular networks); experiment: A-Graft revascularization after implantation into nude mice; type: in vivo
Protocol: (§3) Photopolymerizable methacrylated gelatin (GelMA) hydrogel was synthesized as previously described (Chen, et al. Adv. Funct. Mater. 22: 2027-2039 (2012)). GelMA prepolymer solution was prepared in PBS at 80° C. (5 w/v % final) with photoinitiator Irgacure 2959 (0.5 w/v %; CIBA Chemicals), and then allowed to cool down to 37° C. in a water bath. ECFCs and MSCs (4×10^5 total; 1:1 ratio) were suspended in 200 μL of GelMA solution and the mixture was polymerized by exposure to 7.5 mW/cm^2 UV light for 15 s at 37° C. Polymerized cell-laden constructs were referred to as unassembled grafts or U-Grafts. Alternatively, on indicated experiments, U-Grafts were constructed with ice-cold Phenol Red-free Matrigel (BD Bioscience). […]
as §2

[3] = tested on: CXCL1, CXCL8, and IL6; experiment: Human cytokine protein array of conditioned media from A-Grafts; type: cell-based; details: A-Grafts exposed for 24 h
Protocol: as §1
The presence of selected cytokines was evaluated in samples of CM with human cytokine protein arrays (R&D Systems Inc.) according to the manufacturer's instructions. […]

[4] = tested on: m-Islets endogenous gfp+ microvessels; experiment: Vascular sprouting of m-Islets embedded in hydrogel in vitro; type: cell-based, mouse; details: 7 days in vitro
Description: In order to develop an interface for the engraftment of islets, we embedded isolated m-Islets in our hydrogel in the presence or absence of DAPT (a γ-secretase inhibitor) and examined the effect on the vasculature of islets for 7 days. […] This is consistent with previous data in which transiently blocking Notch enhanced the revascularization potential of A-grafts (FIG. 14) (52). We also examined the effect of unassembled DsRed-ECFCs (FIG. 19B). […] Moreover, the newly formed ECFC-lined vessels (DsRed+) interacted with the gfp+ vasculature of the m-Islets, and this interconnectivity was enhanced in the presence of DAPT (FIG. 19B).

[5] = tested on: neutrophils; experiment: Neutrophil recruitment into implanted A-Grafts at day 2 (flow cytometry); type: in vivo, nude mice
Protocol: as §3
(§4) Grafts were removed from euthanized mice and cells were retrieved by enzymatic (1 mg/mL collagenase and 2.5 U/mL dispase) digestion for 1 h at 37° C. […] Retrieved cells were also stained for flow cytometry and analyzed using a Guava easyCyte 6HT/2L flow cytometer (Millipore Corporation, Billerica, Mass.) and FlowJo software (Tree Star Inc., Ashland, Oreg.). […] In indicated experiments, retrieved cells were sorted into mCD45+/mLy6G+(neutrophils) and mCD45+/mLy6G−cells by fluorescence-activated cell sorting (FACS) using a FACSAria II 5-LASER sorter system (BD Bioscience). Sorted cells were analyzed immediately for gene expression by qPCR. […]

[6] = tested on: neutrophils; experiment: Neutrophil recruitment plug assay; type: in vivo, nu/nu mice; details: Matrigel plugs containing CM, day 2
Protocol: Concentrated CM (50 μL) was mixed with 200-μL of Matrigel and injected subcutaneously into nu/nu mice. After 2 days, plugs were explanted and infiltrated cells were retrieved by enzymatic digestion and subjected to flow cytometric analysis. Concentrated basal media (basal-M: EBM-2, 5% FBS) served as control. In indicated experiments, neutralizing antibodies against IL6, CXCL1 or CXCL8 (5 μg/antibody/plug) were added to concentrated CM 30 min prior to implantation. Individual neutralizing antibodies and the combination of three were compared.

[7] = tested on: neutrophils; experiment: Neutrophil recruitment into implanted U-Grafts at day 2 (flow cytometry); type: in vivo, nude mice; details: 7.5 mg/kg intraperitoneally daily
Protocol: as §3, §4

[8] = molecular target: T1, CXCR2 (Homo sapiens, UniProt P25025); details: in vitro and in vivo, previous studies; cited from earlier work
T1 sequence (P25025 1-360): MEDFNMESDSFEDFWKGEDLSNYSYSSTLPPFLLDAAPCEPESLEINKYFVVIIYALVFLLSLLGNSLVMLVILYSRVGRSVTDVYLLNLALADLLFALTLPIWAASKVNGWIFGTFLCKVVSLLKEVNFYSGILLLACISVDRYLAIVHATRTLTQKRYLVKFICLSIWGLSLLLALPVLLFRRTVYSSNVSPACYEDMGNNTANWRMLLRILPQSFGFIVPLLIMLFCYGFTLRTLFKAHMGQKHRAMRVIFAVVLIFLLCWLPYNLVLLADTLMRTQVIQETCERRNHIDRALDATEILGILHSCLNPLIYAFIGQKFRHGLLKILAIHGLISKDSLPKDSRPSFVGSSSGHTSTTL

| SMILES | U-Graft vascularization / microvessel density compared with control [1] | number of perfused vessels at day 7 in U-grafts ([1]; mice treated daily, intraperitoneal) | perivascular coverage (α-SMA+ cells) of human vessels in A-Grafts ([2]; day 7, A-Grafts treated 24 h before implantation) | perfused microvessel networks in A-Grafts ([2]; day 7 in vivo, compared with untreated / basal-M A-Grafts) | expression of cytokines in conditioned media of A-Grafts [3] | sprouting activity of endogenous gfp+ microvessels (number and length of sprouts) ([4]; m-Islets in hydrogel, vs untreated islets) | interconnectivity between ECFC-lined vessels (DsRed+) and m-Islets vasculature (gfp+) ([4]; m-Islets with unassembled DsRed-ECFCs in hydrogel) | neutrophils in A-Grafts compared with control [5] | neutrophil recruitment into subcutaneous plugs [6] | neutrophil presence in implanted U-Grafts [7] | neutrophil chemotaxis in response to CXCL8 [8] |
| --- | --- | --- | --- | --- | --- | --- | --- | --- | --- | --- | --- |
| NC(=O)c1ccc(-c2nc(-c3ccccn3)c(-c3ccc4c(c3)OCO4)[nH]2)cc1 [SB432542] | completely abrogated | insignificant | – | – | – | – | – | – | – | – | – |
| C[C@H](NC(=O)Cc1cc(F)cc(F)c1)C(=O)N[C@H](C(=O)OC(C)(C)C)c1ccccc1 [DAPT, N—[N-(3,5-Difluorophenylacetyl-L-alanyl)]-S-phenylglycine t-Butyl ester] | – | – | did not compromise proper perivascular coverage | more extensive networks of perfused microvessels | reactivated the expression of several cytokines | significantly higher | enhanced | significantly more | recruited significantly more neutrophils | – | – |
| O=C(Nc1ccc([N+](=O)[O-])cc1O)Nc1ccccc1Br [SB225002] | significantly lower | – | – | – | – | – | – | – | – | significantly impaired | effectively inhibits |
